Patent US5602153A, “Method of using 1-arylheteroarylalkyl substituted-1H-1,2,4-triazole compounds for treatment of a giaucoma disorder” (G.D. Searle & Co., priority 1993, dated 1997)

Test system: pressor response to AII
Experiment: Assay D: In Vivo Intragastric Pressor Assay Response for AII Antagonists of Examples #1 and #3
Set-up: species or system rat (male Sprague-Dawley)
Conditions: 3 mg/kg gavage
Protocol: Assay D: In Vivo Intragastric Pressor Assay Response for AII Antagonists of Examples #1 and #3
Male Sprague-Dawley rats weighing 225-300 grams were anesthetized with methohexital (30 mg/kg, i.p.) and catheters were implanted into the femoral artery and vein. The catheters were tunneled subcutaneously to exit dorsally, posterior to the head and between the scapulae. The catheters were filled with heparin (1000 units/ml of saline). The rats were returned to their cage and allowed regular rat chow and water ad libitum. After full recovery from surgery (3-4 days), rats were placed in Lucite holders and the arterial line was connected to a pressure transducer. Arterial pressure was recorded on a Gould polygraph (mmHg). Angiotensin II was administered as a 30 ng/kg bolus via the venous catheter delivered in a 50 μl volume with a 0.2 ml saline flush. The pressor response in mm Hg was measured by the difference from pre-injection arterial pressure to the maximum pressure achieved. The AII injection was repeated every 10 minutes until three consecutive injections yielded responses within 4 mmHg of each other. These three responses were then averaged and represented the control response to AII. The test compound was suspended in 0.5% methylcellulose in water and was administered by gavage. The volume administered was 2 ml/kg body weight. The standard dose was 3 mg/kg. […] The pressor response to AII was measured at each time point. The rats were then returned to their cage for future testing. A minimum of 3 days was allowed between tests. Percent inhibition was calculated for each time point following gavage by the following formula: [(Control Response-Response at time point)/Control Response]×100.

## CCCCc1nc(CCCC)n(Cc2ccc(-c3ccccc3-c3nnn[nH]3)cn2)n1 [Example 1, 5-[2-[6-[(3,5-dibutyl-1H-1,2,4-triazol-1-yl)methyl]-3-pyridinyl]phenyl]-1H-tetrazole]
Rat A, 0 min
  % Inhibition of Blood Pressure Elevation: 0%
Rat A, 30 min
  % Inhibition of Blood Pressure Elevation: 14%
Rat A, 45 min
  % Inhibition of Blood Pressure Elevation: 20%
Rat A, 60 min
  % Inhibition of Blood Pressure Elevation: 40%
Rat A, 75 min
  % Inhibition of Blood Pressure Elevation: 33%
Rat A, 90 min
  % Inhibition of Blood Pressure Elevation: 37%
Rat A, 120 min
  % Inhibition of Blood Pressure Elevation: 37%
Rat A, 150 min
  % Inhibition of Blood Pressure Elevation: 40%
Rat A, 180 min
  % Inhibition of Blood Pressure Elevation: 33%
Rat B, 0 min
  % Inhibition of Blood Pressure Elevation: 0%
Rat B, 30 min
  % Inhibition of Blood Pressure Elevation: 11%
Rat B, 45 min
  % Inhibition of Blood Pressure Elevation: 15%
Rat B, 60 min
  % Inhibition of Blood Pressure Elevation: 26%
Rat B, 75 min
  % Inhibition of Blood Pressure Elevation: 23%
Rat B, 90 min
  % Inhibition of Blood Pressure Elevation: 21%
Rat B, 120 min
  % Inhibition of Blood Pressure Elevation: 23%
Rat B, 150 min
  % Inhibition of Blood Pressure Elevation: 23%
Rat B, 180 min
  % Inhibition of Blood Pressure Elevation: 13%
Rat C, 0 min
  % Inhibition of Blood Pressure Elevation: 0%
Rat C, 30 min
  % Inhibition of Blood Pressure Elevation: 16%
Rat C, 45 min
  % Inhibition of Blood Pressure Elevation: 6%
Rat C, 60 min
  % Inhibition of Blood Pressure Elevation: 29%
Rat C, 75 min
  % Inhibition of Blood Pressure Elevation: 2%
Rat C, 90 min
  % Inhibition of Blood Pressure Elevation: 10%
Rat C, 120 min
  % Inhibition of Blood Pressure Elevation: 16%
Rat C, 150 min
  % Inhibition of Blood Pressure Elevation: -4%
Rat C, 180 min
  % Inhibition of Blood Pressure Elevation: 10%
Rats A-C Mean ± SE, 30 min
  % Inhibition of Blood Pressure Elevation: 14 ± 2%
Rats A-C Mean ± SE, 45 min
  % Inhibition of Blood Pressure Elevation: 14 ± 4%
Rats A-C Mean ± SE, 60 min
  % Inhibition of Blood Pressure Elevation: 31 ± 4%
Rats A-C Mean ± SE, 75 min
  % Inhibition of Blood Pressure Elevation: 20 ± 9%
Rats A-C Mean ± SE, 90 min
  % Inhibition of Blood Pressure Elevation: 23 ± 8%
Rats A-C Mean ± SE, 120 min
  % Inhibition of Blood Pressure Elevation: 26 ± 6%
Rats A-C Mean ± SE, 150 min
  % Inhibition of Blood Pressure Elevation: 20 ± 13%
Rats A-C Mean ± SE, 180 min
  % Inhibition of Blood Pressure Elevation: 19 ± 7%

## CCCCc1nc(CCCC)n(Cc2ccc(-c3ccccc3-c3nnn[nH]3)nc2)n1 [Example 3, 5-[2-[5-[(3,5-dibutyl-1H-1,2,4-triazol-1-yl)methyl]-2-pyridinyl]phenyl]-1H-tetrazole]
Rat A, 0 min
  % Inhibition of Blood Pressure Elevation: 0%
Rat A, 30 min
  % Inhibition of Blood Pressure Elevation: 64%
Rat A, 45 min
  % Inhibition of Blood Pressure Elevation: 67%
Rat A, 60 min
  % Inhibition of Blood Pressure Elevation: 52%
Rat A, 75 min
  % Inhibition of Blood Pressure Elevation: 45%
Rat A, 90 min
  % Inhibition of Blood Pressure Elevation: 60%
Rat A, 120 min
  % Inhibition of Blood Pressure Elevation: 41%
Rat A, 150 min
  % Inhibition of Blood Pressure Elevation: 38%
Rat A, 180 min
  % Inhibition of Blood Pressure Elevation: 24%
Rat B, 0 min
  % Inhibition of Blood Pressure Elevation: 0%
Rat B, 30 min
  % Inhibition of Blood Pressure Elevation: 55%
Rat B, 45 min
  % Inhibition of Blood Pressure Elevation: 71%
Rat B, 60 min
  % Inhibition of Blood Pressure Elevation: 55%
Rat B, 75 min
  % Inhibition of Blood Pressure Elevation: 53%
Rat B, 90 min
  % Inhibition of Blood Pressure Elevation: 50%
Rat B, 120 min
  % Inhibition of Blood Pressure Elevation: 50%
Rat B, 150 min
  % Inhibition of Blood Pressure Elevation: 53%
Rat B, 180 min
  % Inhibition of Blood Pressure Elevation: 40%
Rat C, 0 min
  % Inhibition of Blood Pressure Elevation: 0%
Rat C, 30 min
  % Inhibition of Blood Pressure Elevation: 15%
Rat C, 45 min
  % Inhibition of Blood Pressure Elevation: 12%
Rat C, 60 min
  % Inhibition of Blood Pressure Elevation: 46%
Rat C, 75 min
  % Inhibition of Blood Pressure Elevation: 27%
Rat C, 90 min
  % Inhibition of Blood Pressure Elevation: 46%
Rat C, 120 min
  % Inhibition of Blood Pressure Elevation: 53%
Rat C, 150 min
  % Inhibition of Blood Pressure Elevation: 50%
Rat C, 180 min
  % Inhibition of Blood Pressure Elevation: 62%
Rat D, 0 min
  % Inhibition of Blood Pressure Elevation: 0%
Rat D, 30 min
  % Inhibition of Blood Pressure Elevation: 21%
Rat D, 45 min
  % Inhibition of Blood Pressure Elevation: 14%
Rat D, 60 min
  % Inhibition of Blood Pressure Elevation: 36%
Rat D, 75 min
  % Inhibition of Blood Pressure Elevation: 36%
Rat D, 90 min
  % Inhibition of Blood Pressure Elevation: 26%
Rat D, 120 min
  % Inhibition of Blood Pressure Elevation: 34%
Rat D, 150 min
  % Inhibition of Blood Pressure Elevation: 29%
Rat D, 180 min
  % Inhibition of Blood Pressure Elevation: 3%
Rat E, 0 min
  % Inhibition of Blood Pressure Elevation: 0%
Rat E, 30 min
  % Inhibition of Blood Pressure Elevation: 52%
Rat E, 45 min
  % Inhibition of Blood Pressure Elevation: 43%
Rat E, 60 min
  % Inhibition of Blood Pressure Elevation: 38%
Rat E, 75 min
  % Inhibition of Blood Pressure Elevation: 43%
Rat E, 90 min
  % Inhibition of Blood Pressure Elevation: 29%
Rat E, 120 min
  % Inhibition of Blood Pressure Elevation: 29%
Rat E, 150 min
  % Inhibition of Blood Pressure Elevation: 16%
Rat E, 180 min
  % Inhibition of Blood Pressure Elevation: 16%
Rats A-E Mean ± SE, 0 min
  % Inhibition of Blood Pressure Elevation: 0%
Rats A-E Mean ± SE, 30 min
  % Inhibition of Blood Pressure Elevation: 42 ± 10%
Rats A-E Mean ± SE, 45 min
  % Inhibition of Blood Pressure Elevation: 41 ± 13%
Rats A-E Mean ± SE, 60 min
  % Inhibition of Blood Pressure Elevation: 46 ± 4%
Rats A-E Mean ± SE, 75 min
  % Inhibition of Blood Pressure Elevation: 41 ± 4%
Rats A-E Mean ± SE, 90 min
  % Inhibition of Blood Pressure Elevation: 42 ± 6%
Rats A-E Mean ± SE, 120 min
  % Inhibition of Blood Pressure Elevation: 41 ± 5%
Rats A-E Mean ± SE, 150 min
  % Inhibition of Blood Pressure Elevation: 37 ± 7%
Rats A-E Mean ± SE, 180 min
  % Inhibition of Blood Pressure Elevation: 29 ± 10%
